Patent US11767322B2 (BRISTOL-MYERS SQUIBB COMPANY, priority 2020, dated 2023)

The molecules below were run on MLKL phosphorylation in HT29-L23 human colorectal adenocarcinoma cells (assay: MLKL phosphorylation high-content assay). Conditions: HT29-L23 cells; necroptosis induced with TNFα, SMAC mimetic and Z-VAD, 6 h; maximal inhibition defined by Nec1s; read-out: pMLKL IC50.
Assay type: cell-based
[2H]C([2H])([2H])C(O)(c1ccc(F)cc1)C(F)CNC(=O)c1c(Cl)ccc(-c2ccn3nc(N)nc3c2)c1F (single isomer, unassigned) [Example 237, 3-(2-amino-[1,2,4]triazolo[1,5-a]pyridin-7-yl)-6-chloro-2-fluoro-N-(2-fluoro-3-(4-fluorophenyl)-3-hydroxybutyl-4,4,4-d3)benzamide] was tested, and the IC50 was 86 nM.
Cc1c(C(=O)NCC(F)(F)C(O)c2ccc(F)cc2)cc(-c2ccn3nc(N)nc3c2)c(F)c1F (single isomer, unassigned) [Example 107, 5-(2-amino-[1,2,4]triazolo[1,5-a]pyridin-7-yl)-N-(2,2-difluoro-3-(4-fluorophenyl)-3-hydroxypropyl)-3,4-difluoro-2-methylbenzamide] gave an IC50 of 0.4 nM.
COc1ccc(-c2ccn3nc(N)nc3c2)c(F)c1C(=O)NCC(F)(F)C(O)c1ccc(F)cc1 (single isomer, unassigned) [Example 125, 3-(2-amino-[1,2,4]triazolo[1,5-a]pyridin-7-yl)-N-(2,2-difluoro-3-(4-fluorophenyl)-3-hydroxypropyl)-2-fluoro-6-methoxybenzamide] was tested, and the IC50 was 2.9 nM.
CCC(O)(c1ccc(F)cc1)C(F)(F)CNC(=O)c1c(Cl)ccc(-c2ccn3nc(N)nc3c2)c1F (single isomer, unassigned) [Example 313, 3-(2-amino-[1,2,4]triazolo[1,5-a]pyridin-7-yl)-6-chloro-N-(2,2-difluoro-3-(4-fluorophenyl)-3-hydroxypentyl)-2-fluorobenzamide] was tested, and the IC50 was 3.8 nM.
CCC(O)(c1ccc(F)cc1)C(F)(F)CNC(=O)c1c(Cl)ccc(-c2ccn3nc(N)nc3c2)c1F (single isomer, unassigned) [Example 314, 3-(2-amino-[1,2,4]triazolo[1,5-a]pyridin-7-yl)-6-chloro-N-(2,2-difluoro-3-(4-fluorophenyl)-3-hydroxypentyl)-2-fluorobenzamide] showed an IC50 of 17 nM.
Work on [2H]C([2H])([2H])C(O)(c1ccc(F)cc1)C(F)CNC(=O)c1c(C(F)F)ccc(-c2ccn3nc(N)nc3c2)c1F (single isomer, unassigned) [Example 194, 3-(2-amino-[1,2,4]triazolo[1,5-a]pyridin-7-yl)-6-(difluoromethyl)-2-fluoro-N-(2-fluoro-3-(4-fluorophenyl)-3-hydroxybutyl-4,4,4-d3)benzamide] yielded an IC50 of 8.8 nM.
For Nc1nc2cc(-c3ccc(Cl)c(C(=O)NCC(F)(F)C(O)c4ccc(Cl)c(Cl)n4)c3F)ccn2n1 (single isomer, unassigned) [Example 271], the IC50 was 1.8 nM.
With COc1ccc(-c2ccn3nc(N)nc3c2)c(F)c1C(=O)NCC(F)(F)C(O)c1ccc(F)cc1 (single isomer, unassigned) [Example 124, 3-(2-amino-[1,2,4]triazolo[1,5-a]pyridin-7-yl)-N-(2,2-difluoro-3-(4-fluorophenyl)-3-hydroxypropyl)-2-fluoro-6-methoxybenzamide] the IC50 was 1.4 nM.

Same assay, conditions: Homo sapiens, 6 h, HT29-L23 cells; necroptosis induced with TNFα, SMAC mimetic and Z-VAD, 6 h; maximal inhibition defined by Nec1s; read-out: pMLKL IC50
With [2H]C([2H])([2H])c1ccc(-c2ccn3nc(N)nc3c2)c(F)c1C(=O)NC[C@H](F)[C@@](C)(O)c1ccc(F)cc1 [Example 213, 3-(2-amino-[1,2,4]triazolo[1,5-a]pyridin-7-yl)-2-fluoro-N-((2S,3S)-2-fluoro-3-(4-flurophenyl)-3-hydroxybutyl)-6-(methyl-d3)benzamide] the IC50 was 13 nM.
In the case of Nc1nc2cc(-c3cc(C(=O)NCC(F)(F)C(O)c4ccc(F)cc4)c(Cl)cc3Cl)ccn2n1 (racemic) [Example 127], the IC50 is reported as 9.7 nM.
Cc1c(F)cc(-c2ccn3nc(N)nc3c2)cc1C(=O)NCCC(C)(O)c1ccccc1 (stereo not drawn) [Example 96, 5-(2-amino-[1,2,4]triazolo[1,5-a]pyridin-7-yl)-3-fluoro-N-(3-hydroxy-3-phenylbutyl)-2-methylbenzamide] showed an IC50 of 39 nM.
With Cc1c(C(=O)NCC(F)(F)C(O)c2ccc(Cl)cc2)cc(-c2ccn3nc(N)nc3c2)c(F)c1F (single isomer, unassigned) [Example 104, 5-(2-amino-[1,2,4]triazolo[1,5-a]pyridin-7-yl)-N-(3-(4-chlorophenyl)-2,2-difluoro-3-hydroxypropyl)-3,4-difluoro-2-methylbenzamide] the IC50 was 0.3 nM.
With Cc1ccc(-c2ccn3nc(N)nc3c2)c(F)c1C(=O)NCC(C)(O)C(=O)c1ccc(F)cc1 (stereo not drawn) [Example 279, 3-(2-amino-[1,2,4]triazolo[1,5-a]pyridin-7-yl)-2-fluoro-N-(3-(4-fluorophenyl)-2-hydroxy-2-methyl-3-oxopropyl)-6-methylbenzamide] the IC50 was 8.3 nM.
Work on [2H]C([2H])([2H])c1ccc(-c2ccn3nc(N)nc3c2)c(F)c1C(=O)NC[C@@H](F)[C@](C)(O)c1ccc(F)cc1 [Example 214, 3-(2-amino-[1,2,4]triazolo[1,5-a]pyridin-7-yl)-2-fluoro-N-((2R,3R)-2-fluoro-3-(4-fluorophenyl)-3-hydroxybutyl)-6-(methyl-d3)benzamide] yielded an IC50 of 0.9 nM.
Work on C[C@@](O)(c1ccc(F)cc1)[C@H](F)CNC(=O)c1c(Cl)ccc(-c2ccn3nc(N)nc3c2)c1F [Example 210, 3-(2-amino-[1,2,4]triazolo[1,5-a]pyridin-7-yl)-6-chloro-2-fluoro-N-((2R,3R)-2-fluoro-3-(4-fluorophenyl)-3-hydroxybutyl)benzamide] yielded an IC50 of 2.5 nM.
Cc1ccc(-c2ccn3nc(N)nc3c2)c(F)c1C(=O)NCC(F)(F)C(C)(O)c1ccc(F)cc1 (single isomer, unassigned) [Example 61, 3-(2-amino-[1,2,4]triazolo[1,5-a]pyridin-7-yl)-N-(2,2-difluoro-3-(4-fluorophenyl)-3-hydroxybutyl)-2-fluoro-6-methylbenzamide] showed an IC50 of 0.8 nM.
With Nc1nc2cc(-c3ccc(F)c(C(=O)NCC(F)(F)[C@@H](F)c4ccc(F)cc4)c3F)ccn2n1 [Example 285, (S)-3-(2-amino-[1,2,4]triazolo[1,5-a]pyridin-7-yl)-2,6-difluoro-N-(2,2,3-trifluoro-3-(4-fluorophenyl)propyl)benzamide] the IC50 was 0.8 nM.
Nc1nc2cc(-c3ccc(Cl)c(C(=O)NCC(F)(F)[C@H](F)c4ccc(F)cc4)c3F)ccn2n1 [Example 288, (R)-3-(2-amino-[1,2,4]triazolo[1,5-a]pyridin-7-yl)-6-chloro-2-fluoro-N-(2,2,3-trifluoro-3-(4-fluorophenyl)propyl)benzamide] was tested, and the IC50 was 1 nM.
Molecule Nc1nc2cc(-c3ccc(C(F)(F)F)c(C(=O)NCC(F)(F)[C@H](F)c4ccc(F)cc4)c3F)ccn2n1 [Example 289, (R)-3-(2-amino-[1,2,4]triazolo[1,5-a]pyridin-7-yl)-2-fluoro-N-(2,2,3-trifluoro-3-(4-fluorophenyl)propyl)-6-(trifluoromethyl)benzamide] has an IC50 of 1.7 nM.
With Nc1nc2cc(-c3ccc(C(F)(F)F)c(C(=O)NCC(F)(F)[C@@H](F)c4ccc(F)cc4)c3F)ccn2n1 [Example 286, (S)-3-(2-amino-[1,2,4]triazolo[1,5-a]pyridin-7-yl)-2-fluoro-N-(2,2,3-trifluoro-3-(4-fluorophenyl)propyl)-6-(trifluoromethyl)benzamide] the IC50 was 1 nM.
In the case of CCc1ccc(-c2ccn3nc(N)nc3c2)c(F)c1C(=O)NCC(F)(F)C(O)c1ccc(F)cc1 (stereo not drawn) [Example 121, 3-(2-amino-[1,2,4]triazolo[1,5-a]pyridin-7-yl)-N-(2,2-difluoro-3-(4-fluorophenyl)-3-hydroxypropyl)-6-ethyl-2-fluorobenzamide], the IC50 is reported as 1 nM.
With CCc1ccc(-c2ccn3nc(N)nc3c2)c(F)c1C(=O)NCC(F)(F)C(O)c1ccc(F)cc1 (single isomer, unassigned) [Example 120, 3-(2-amino-[1,2,4]triazolo[1,5-a]pyridin-7-yl)-N-(2,2-difluoro-3-(4-fluorophenyl)-3-hydroxypropyl)-6-ethyl-2-fluorobenzamide] the IC50 was 1.4 nM.
C[C@](O)(c1ccc(F)cc1)[C@@H](F)CNC(=O)c1c(Cl)ccc(-c2ccn3nc(N)nc3c2)c1F [Example 209, 3-(2-amino-[1,2,4]triazolo[1,5-a]pyridin-7-yl)-6-chloro-2-fluoro-N-((2S,3S)-2-fluoro-3-(4-fluorophenyl)-3-hydroxybutyl)benzamide] gave an IC50 of 80 nM.
Nc1nc2cc(-c3ccc(F)c(C(=O)NCC(F)(F)[C@H](F)c4ccc(F)cc4)c3F)ccn2n1 [Example 287, (R)-3-(2-amino-[1,2,4]triazolo[1,5-a]pyridin-7-yl)-2,6-difluoro-N-(2,2,3-trifluoro-3-(4-fluorophenyl)propyl)benzamide] was tested, and the IC50 was 0.8 nM.
For C[C@@](O)(c1ccc(F)cc1)[C@@H](F)CNC(=O)c1c(Cl)ccc(-c2ccn3nc(N)nc3c2)c1F [Example 211, 3-(2-amino-[1,2,4]triazolo[1,5-a]pyridin-7-yl)-6-chloro-2-fluoro-N-((2S,3R)-2-fluoro-3-(4-fluorophenyl)-3-hydroxybutyl)benzamide], the IC50 was 45 nM.
Work on Cc1c(C(=O)NCC(F)(F)C(O)c2ccc(F)cc2)cc(-c2ccn3nc(N)nc3c2)c(F)c1F (single isomer, unassigned) [Example 106, 5-(2-amino-[1,2,4]triazolo[1,5-a]pyridin-7-yl)-N-(2,2-difluoro-3-(4-fluorophenyl)-3-hydroxypropyl)-3,4-difluoro-2-methylbenzamide] yielded an IC50 of 0.5 nM.

Same assay, conditions: Homo sapiens, 6 h, read-out: pMLKL IC50, HT29-L23 cells; necroptosis induced with TNFα, SMAC mimetic and Z-VAD, 6 h; maximal inhibition defined by Nec1s
COc1ccc(C(O)C(F)(F)CNC(=O)c2c(Cl)ccc(-c3ccn4nc(N)nc4c3)c2F)cc1 (single isomer, unassigned) [Example 184, 3-(2-amino-[1,2,4]triazolo[1,5-a]pyridin-7-yl)-6-chloro-N-(2,2-difluoro-3-hydroxy-3-(4-methoxyphenyl)propyl)-2-fluorobenzamide] was tested, and the IC50 was 0.4 nM.

Same assay, conditions: Homo sapiens, Table 22, compounds of the present invention; read-out: pMLKL IC50
With Cc1ccc(-c2ccn3nc(N)nc3c2)c(F)c1C(=O)NCC(C)(O)C(=O)c1ccc(F)cc1 (stereo not drawn) [Example 279, 3-(2-amino-[1,2,4]triazolo[1,5-a]pyridin-7-yl)-2-fluoro-N-(3-(4-fluorophenyl)-2-hydroxy-2-methyl-3-oxopropyl)-6-methylbenzamide] the IC50 was 8.3 nM.

Same assay, conditions: Homo sapiens, Table 23, representative compounds from WO2018/148626; read-out: pMLKL IC50
CC(CCNC(=O)c1cc(-c2ccn3nc(N)nc3c2)cnc1Cl)c1ccccc1 (stereo not drawn) [Example 170] showed an IC50 of 48 nM.
COc1ncc(-c2ccn3nc(N)nc3c2)cc1C(=O)NC(C)CCc1ccccc1 (stereo not drawn) [Example 101] showed an IC50 of 82 nM.
